Values joined by “and” are separate entries in the source; they are usually repeats but may differ in a detail not shown here. Equal values may be shown once. Read-outs that look alike come from different tables or passages of the source.
Key:
[1] = system: A. brasiliensis ATCC 16404
Other blue green = settings: hatchery after DHP treatment
Description: (§1) Hatcheries and chick production facilities are subject to heavy bacterial loads that are difficult to control. In addition to the animals themselves, there is a significant contamination of the facilities from the outside.

Total bacteria = settings: hatchery after DHP treatment
Description: as §1

[2] = system: MS2 Bacteriophage ATCC 15597-B1
[3] = Day 4 DHP+, summary of replicates stored 4 days
[4] = Day 5 DHP+, summary of replicates stored 5 days
[5] = Day 6 DHP+, summary of replicates stored 6 days
[6] = Day 7 DHP+, summary of replicates stored 7 days
[7] = Delta Avg. Trtd versus Avg. Untrd, egg storage 4 to 7 days
[8] = Mean / Avg. Trtd, 22 DHP replicates, egg storage 4 to 7 days
[9] = with DHP, egg storage 4 days, single replicate of 90 eggs
[10] = with DHP, egg storage 5 days, single replicate of 90 eggs
[11] = with DHP, egg storage 6 days, single replicate of 90 eggs
[12] = with DHP, egg storage 7 days, single replicate of 90 eggs

## OO [DHP, dry hydrogen peroxide]
Eggs and hatched chicks; 4 day delta, DHP+ versus DHP−
  % Infertile, delta: 0.64%
  Chick A, delta: 0.14%
  Chick B, delta: −0.14%
  Chick Weight, delta: 0.89 g
  Cont, delta: 0.00%
  Crack, delta: 0.32%
  Cull dead cks, delta: 0.00%
  Dead pip, delta: −0.16%
  Early dead, delta: −0.33%
  Fertile Hatchability, delta: 0.12%
  Late dead, delta: −0.64%
  Live pip, delta: 0.63%
  Mid dead, delta: 0.16%
  Total Hatchability, delta: −0.64%
Eggs and hatched chicks; 5 day delta, DHP+ versus DHP−
  Chick Weight, delta: 0.85 g
  Cont, delta: 0.00%
  Crack, delta: −0.19%
  Cull dead cks, delta: 0.00%
  Dead pip, delta: −0.37%
  Early dead, delta: −1.70%
  Fertile Hatchability, delta: 3.20%
  Live pip, delta: 0.37%
  Mid dead, delta: 0.74%
Eggs and hatched chicks; 6 day delta, DHP+ versus DHP−
  % Infertile, delta: 0.94%
  Chick A, delta: −0.57%
  Chick B, delta: 0.57%
  Chick Weight, delta: 0.49 g
  Cont, delta: 0.00%
  Crack, delta: 0.00%
  Cull dead cks, delta: −0.48%
  Dead pip, delta: −0.48%
  Late dead, delta: −0.82%
  Live pip, delta: −0.16%
  Mid dead, delta: 0.48%
Eggs and hatched chicks; [3]
  Cont: 0.00%
  Crack: 0.48%
  Cull dead cks: 0.00%
  Dead pip: 0.16%
  Live pip: 0.95%
  Mid dead: 0.16%
Eggs and hatched chicks; [4]
  Cont: 0.00%
  Crack: 0.00%
  Cull dead cks: 0.00%
  Dead pip: 0.00%
  Live pip: 0.56%
  Mid dead: 0.93%
Eggs and hatched chicks; [5]
  Cont: 0.00%
  Crack: 0.00%
  Cull dead cks: 0.00%
  Dead pip: 0.00%
  Early dead: 2.70%
  Live pip: 0.16%
  Mid dead: 0.79%
Eggs and hatched chicks; [6]
  % Infertile: 0.56%
  Cont: 0.00%
  Crack: 0.00%
  Cull dead cks: 0.56%
  Dead pip: 0.00%
  Mid dead: 0.56%
Eggs and hatched chicks; Day 7 Delta, DHP+ versus DHP−
  % Infertile, delta: 0.00%
  Chick Weight, delta: 1.10 g
  Cont, delta: −0.56%
  Crack, delta: 0.00%
  Cull dead cks, delta: 0.56%
  Dead pip, delta: 0.00%
  Fertile Hatchability, delta: 0.56%
  Late dead, delta: 0.55%
  Mid dead, delta: 0.56%
  Total Hatchability, delta: 0.56%
Eggs and hatched chicks; [7]
  % Infertile, delta: 1.00%
  Chick A, delta: 0.23%
  Chick B, delta: −0.23%
  Chick Weight, delta: 0.77 g
  Cont, delta: −0.05%
  Crack, delta: 0.05%
  Cull dead cks, delta: −0.10%
  Dead pip, delta: −0.30%
  Early dead, delta: −1.70%
  Late dead, delta: −0.97%
  Live pip, delta: 0.35%
  Mid dead, delta: 0.45%
Eggs and hatched chicks; [8]
  Cont: 0.00%
  Crack: 0.15%
  Cull dead cks: 0.05%
  Dead pip: 0.05%
  Live pip: 0.61%
  Mid dead: 0.61%
Eggs and hatched chicks; all storage times
  improvement in number of A grade chicks: 0.23%
Eggs and hatched chicks; an additional day (five days)
  increase of fertile hatchability vs untreated: 3.2%
  increase of total hatchability vs untreated: 1.3%
  increased weight vs untreated: 0.85 grams
Eggs and hatched chicks; at day 7
  DHP gas treated eggs observed to be contaminated: none
Eggs and hatched chicks; death during incubation
  decrease of number of early deaths: about 1.7%
  mid cycle deaths: decreased
Eggs and hatched chicks; eggs treated four days
  change of fertile hatchability vs untreated: +0.12
  change of total hatchability vs untreated: −0.64%
  increased weight vs untreated: +0.89 g
Eggs and hatched chicks; seven day storage
  increase of fertile hatchability vs untreated: 0.56%
  increase of total hatchability vs untreated: 0.56%
  increased weight vs untreated: 1.10 grams
Eggs and hatched chicks; six days
  increase of fertile hatchability vs untreated: 4.67%
  increase of total hatchability vs untreated: 2.96%
  increased weight vs untreated: 0.49 grams
Eggs and hatched chicks; vs untreated
  number of live pip eggs: increases
Eggs and hatched chicks; [9]
  % Infer: 0.00%
  Chick B: 2.40% and 4.80% and 3.70%
  Cont: 0.00%
  Crack: 0.00%
  Cull dead: 0.00%
  Dead pip: 0.00%
  Late dead: 0.00%
  Live pip: 0.00%
  Mid dead: 0.00%
Eggs and hatched chicks; [10]
  % Infer: 10.00%
  Chick A: 100.0%
  Cont: 0.00%
  Crack: 0.00%
  Cull dead: 0.00%
  Dead pip: 0.00%
  Late dead: 0.00%
  Live pip: 0.00%
  Mid dead: 0.00%
  Total Hatchblty: 90.00%
Eggs and hatched chicks; [11]
  % Infer: 0.00%
  Chick B: 4.80%
  Cont: 0.00%
  Crack: 0.00%
  Cull dead: 0.00%
  Dead pip: 0.00%
  Late dead: 0.00%
  Live pip: 0.00%
  Mid dead: 0.00%
  Total Hatchblty: 90.00%
Eggs and hatched chicks; [12]
  % Infer: 0.00%
  Check Weight: 44.94 g and 44.41 g
  Cont: 0.00%
  Crack: 0.00%
  Cull dead: 0.00%
  Dead pip: 0.00%
  Live pip: 0.00%
  Mid dead: 0.00%
[1]; 12 Hours, Hood (Treated)
  Average CFU/Carrier: 2.18E+06 CFU/Carrier
  Log Reduction compared to Control: 0.02 Log
  Percent Reduction compared to Control: 4.40%
[1]; 12 Hours, Room (Treated)
  Average CFU/Carrier: 3.10E+06 CFU/Carrier
  Log Reduction compared to Control: None
  Percent Reduction compared to Control: None
[1]; 24 Hours, Hood (Treated)
  Average CFU/Carrier: 9.75E+05 CFU/Carrier
  Log Reduction compared to Control: 0.29 Log
  Percent Reduction compared to Control: 48.68%
[1]; 24 Hours, Room (Treated)
  Average CFU/Carrier: 1.43E+06 CFU/Carrier
  Log Reduction compared to Control: 0.12 Log
  Percent Reduction compared to Control: 25.00%
  Replicate CFU/Carrier: 1.75E+06 CFU/Carrier
[1]; 48 Hours, Hood (Treated)
  Average CFU/Carrier: 6.75E+05 CFU/Carrier
  Log Reduction compared to Control: 0.28 Log
  Percent Reduction compared to Control: 47.06%
[1]; 48 Hours, Room (Treated)
  Average CFU/Carrier: 1.70E+06 CFU/Carrier
  Log Reduction compared to Control: None
  Percent Reduction compared to Control: None
Other blue green
  Post: 56
Total bacteria
  Reduction: over 90%
[2]; DHP (+), 1 hour
  Log10 reduction: 3.54 Log10
  Log10 reduction vs. Control: 2.70 Log10
[2]; within one hour
  elimination of airborne phage: essentially eliminated

From patent publication US12102063B2 (SYNEXIS LLC, priority 2017, dated 2024)
